{"source": "patent US10533014B2", "about": "“Immunoregulatory agents” (Flexus Biosciences, Inc., priority 2014, dated 2020)", "note": "pIC50: −log10 of the molar value.", "data": [{"target": "T1, human IDO1 (Homo sapiens, UniProt P14902)", "T1 construct": "expressed in transfected cells", "T1 sequence (P14902 whole entry)": "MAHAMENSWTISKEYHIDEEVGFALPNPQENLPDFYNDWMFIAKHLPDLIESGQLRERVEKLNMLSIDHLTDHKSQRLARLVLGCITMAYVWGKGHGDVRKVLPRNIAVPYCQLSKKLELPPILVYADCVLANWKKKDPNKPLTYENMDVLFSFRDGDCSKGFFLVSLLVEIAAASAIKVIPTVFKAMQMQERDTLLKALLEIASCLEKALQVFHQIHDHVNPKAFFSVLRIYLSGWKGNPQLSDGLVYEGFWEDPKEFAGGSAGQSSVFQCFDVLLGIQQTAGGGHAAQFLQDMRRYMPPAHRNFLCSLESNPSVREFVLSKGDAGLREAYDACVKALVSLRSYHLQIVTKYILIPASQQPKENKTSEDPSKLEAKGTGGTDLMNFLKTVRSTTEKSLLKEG", "assay": "IDO inhibition assay in HEK293 cells stably expressing human IDO1 (Example 252)", "type": "cell-based", "conditions": "20 hours incubation, kynurenine by Ehrlich reagent, absorbance at 490 nm, read-out: HEK Human IDO-1 Potency", "method": "1HEK293 cells were transfected with a pCDNA-based mammalian expression vector harboring human IDO1 cDNA (NM 002164.2) by electroporation. They were cultured in medium (DMEM with 10% FBS) containing 1 mg/ml G418 for two weeks. Clones of HEK293 cells that stably expressed human IDO1 protein were selected and expanded for IDO inhibition assay.\nThe human IDO1/HEK293 cells were seeded at 10,000 cells per 50 μL per well with RPMI/phenol red free media contains 10% FBS in a 384-well black wall clear bottom tissue culture plate (Matrix Technologies LLC) 100 nL of certain concentration of compound was then added to each well using ECHO liquid handling systems. The cells were incubated for 20 hours in 37° C. incubator with 5% CO2.\nThe compound treatments were stopped by adding Trichloroacetic Acid (Sigma-Aldrich) to a final concentration at 0.2%. The cell plate was further incubated at 50° C. for 30 minute. The equal volume supernatant (20 μL) and 0.2% (w/v) Ehrlich reagent (4-dimethylaminobenzaldehyde, Sigma-Aldrich) in glacial acetic acid were mixed in a new clear bottom 384-well plate. This plate was then incubated at room temperature for 30 minute. The absorbance at 490 nm was measured on Envision plate reader.", "values": [{"molecule": "N-(4-chlorophenyl)-2-(trans-4-(6-fluoroquinolin-4-yl)-1-hydroxycyclohexyl)propanamide [Example 230]", "pIC50": "> 6.60"}, {"molecule": "N-(4-chlorophenyl)-2-(cis-4-(6-fluoroquinolin-4-yl)-1-hydroxycyclohexyl)propanamide [Example 231]", "pIC50": "> 6.60"}, {"molecule": "C[C@@H](C(=O)Nc1cccc(C(F)F)c1)[C@H]1CC[C@@H](c2ccnc3ccc(F)cc32)CC1", "note": "(relative stereo) [Example 63, (R)-N-(3-(difluoromethyl)phenyl)-2-((cis)-4-(6-fluoroquinolin-4-yl)cyclohexyl)propanamide]", "pIC50": "> 7.30"}, {"molecule": "C[C@@H](C(=O)NC1CCCCC1)[C@H]1CC[C@@H](c2ccnc3ccc(F)cc32)CC1", "note": "(relative stereo) [Example 141, (R)-N-cyclohexyl-2-((cis)-4-(6-fluoroquinolin-4-yl)cyclohexyl) propanamide]", "pIC50": "> 7.30"}, {"molecule": "COCC(C(=O)Nc1ccc(Cl)cc1)N1CCN(c2ccnc3ccc(F)cc23)CC1", "note": "(single isomer, unassigned) [Example 136, N-(4-chlorophenyl)-2-(4-(6-fluoroquinolin-4-yl)piperazin-1-yl)-3-methoxypropanamide]", "pIC50": "< 6.60"}, {"molecule": "CC(C(=O)O)c1ccc(C[C@@H](C(=O)Nc2ccc(Cl)cc2)[C@H]2CC[C@@H](c3ccnc4ccc(F)cc43)CC2)cc1", "note": "(single isomer, unassigned) [Example 139]", "pIC50": "> 7.30"}, {"molecule": "CC(C(=O)Nc1ccc(Cl)cc1)C1CCC(c2ccnc3c2ncn3C)CC1", "note": "(mixture of isomers) [Example 250, (+/−)-Cis and trans-N-(4-chlorophenyl)-2-(4-(3-methyl-3H-imidazo[4,5-b]pyridin-7-yl)cyclohexyl)propanamide]", "pIC50": "> 6.60"}, {"molecule": "N-(4-chlorophenyl)-2-(cis-4-(6-fluoroquinolin-4-yl)-1-hydroxycyclohexyl)propanamide [Example 232]", "pIC50": "> 7.30"}, {"molecule": "N-(4-chlorophenyl)-2-(trans-4-(6-fluoroquinolin-4-yl)-1-hydroxycyclohexyl)propanamide [Example 229]", "pIC50": "> 7.30"}, {"molecule": "O=C(C[C@H]1CC[C@@H](c2ccnc3ccc(F)cc32)CC1)NC1CCCCC1", "note": "[Example 142, N-cyclohexyl-2-((cis)-4-(6-fluoroquinolin-4-yl)cyclohexyl) acetamide]", "pIC50": "> 6.60"}, {"molecule": "CC(C(=O)O)c1ccc(C[C@@H](C(=O)Nc2ccc(Cl)cc2)[C@H]2CC[C@@H](c3ccnc4ccccc43)CC2)cc1", "note": "(single isomer, unassigned) [Example 87b]", "pIC50": "> 7.30"}]}]}
